Data on 23 molecules can be found in ChEMBL document CHEMBL1136764, “N6-cyclopentyl-2-(3-phenylaminocarbonyltriazene-1-yl)adenosine (TCPA), a very selective agonist with high affinity for the human adenosine A1 receptor” (J Med Chem, 2003).

A word on the Ki: it is the equilibrium dissociation constant of an inhibitor or competing ligand from its target. Higher therefore signals lower affinity. A word on the IC50: it is the concentration needed to halve the response being measured. Read a high IC50 as weaker potency.

Assay [1] deals with T1, Adenosine receptor A1 (Homo sapiens) (UniProt P30542).
T1 sequence (whole entry): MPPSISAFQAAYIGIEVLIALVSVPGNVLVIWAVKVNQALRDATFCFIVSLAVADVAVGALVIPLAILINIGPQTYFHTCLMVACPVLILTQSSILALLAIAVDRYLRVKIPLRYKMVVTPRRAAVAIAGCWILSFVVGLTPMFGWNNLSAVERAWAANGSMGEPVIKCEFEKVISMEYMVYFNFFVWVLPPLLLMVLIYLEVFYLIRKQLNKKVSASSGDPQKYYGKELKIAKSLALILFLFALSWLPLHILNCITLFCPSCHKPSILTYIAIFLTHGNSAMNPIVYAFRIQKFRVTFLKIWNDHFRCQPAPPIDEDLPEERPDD
Kind of assay: Binding affinity for human adenosine A1 receptor using [3H]DPCPX; insoluble.

Assay [2] addresses T2, Adenosine receptor A2a (Homo sapiens, UniProt P29274). Kind of assay: Binding affinity for human adenosine A2A receptor using [3H]ZM-241385; insoluble.
Assay [3] has as its target T3, Adenosine receptor A3 (Homo sapiens) (UniProt P0DMS8).
T3 sequence (whole entry): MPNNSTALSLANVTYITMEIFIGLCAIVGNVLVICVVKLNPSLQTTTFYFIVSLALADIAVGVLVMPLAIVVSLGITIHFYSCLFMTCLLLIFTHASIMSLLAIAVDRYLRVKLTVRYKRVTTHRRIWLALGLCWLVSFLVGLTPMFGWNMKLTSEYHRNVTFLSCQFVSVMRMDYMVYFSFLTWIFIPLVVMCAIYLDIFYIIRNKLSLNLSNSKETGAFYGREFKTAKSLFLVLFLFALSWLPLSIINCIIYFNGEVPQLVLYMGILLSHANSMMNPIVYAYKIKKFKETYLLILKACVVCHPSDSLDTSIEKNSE
Kind of assay: Binding affinity for human adenosine A3 receptor using [125 I]-IABMECA; insoluble.

The target of assay [4] is T4, Adenosine receptor A2b (Homo sapiens) (UniProt P29275).
T4 sequence (whole entry): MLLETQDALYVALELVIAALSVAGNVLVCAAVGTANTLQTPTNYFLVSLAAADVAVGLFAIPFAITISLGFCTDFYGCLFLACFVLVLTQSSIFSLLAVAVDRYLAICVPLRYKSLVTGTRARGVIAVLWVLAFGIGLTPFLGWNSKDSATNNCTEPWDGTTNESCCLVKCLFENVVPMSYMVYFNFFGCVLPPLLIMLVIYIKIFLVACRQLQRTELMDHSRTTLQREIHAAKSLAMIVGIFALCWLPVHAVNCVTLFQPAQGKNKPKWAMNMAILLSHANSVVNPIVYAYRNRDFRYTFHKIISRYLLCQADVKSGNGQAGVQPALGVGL
Briefly: Percent displacement of [3H]DPCPX from human adenosine A2B receptor at 10 uM; insoluble. On the technique in general: In a radioligand displacement assay an active substance lowers the binding of a labelled ligand.

The target of assay [5] is T4, Adenosine receptor A2b (Homo sapiens). Kind of assay: Binding affinity for human adenosine A2B receptor using [3H]DPCPX at 10 uM as percent displacement.
For assay [6], the target named is T1, Adenosine receptor A1 (Homo sapiens). Kind of assay: Percent displacement of [3H]DPCPX from human adenosine A1 receptor at 10 uM.
The target in assay [7] is T5, Adenosine receptor A3 (Homo sapiens, UniProt P0DMS8).
T5 sequence (P0DMS8 whole entry): T3 sequence (whole entry)
Kind of assay: Binding affinity for human Adenosine A3 receptor using [125 I]-IABMECA.

For assay [8], the target named is T2, Adenosine receptor A2a. Briefly: Binding affinity for human Adenosine A2A receptor using [3H]ZM-241385.
Assay [9] has as its target T4, Adenosine receptor A2b (Homo sapiens). Kind of assay: In vitro binding affinity towards human adenosine A2B receptor by [3H]DPCPX displacement at 10 uM.
In assay [10] the target is T5, Adenosine receptor A3. Briefly: Inhibition of [125 I]-IABMECA binding to human adenosine A3 receptor.
The target of assay [11] is T2, Adenosine receptor A2a.
Description: Tested for binding affinity towards human adenosine A2A receptor using [3H]ZM-241385 as radioligand
The target in assay [12] is T6, Adenosine receptor A1 (Homo sapiens, UniProt P30542).
T6 sequence (P30542 whole entry): T1 sequence (whole entry)
Description: In vitro binding affinity towards human adenosine A1 receptor by [3H]DPCPX displacement.

For assay [13], the target named is T2, Adenosine receptor A2a. Kind of assay: Percent displacement of [3H]ZM-241,385 from human adenosine A2A receptor at 10 uM.
The target in assay [14] is T1, Adenosine receptor A1 (Homo sapiens). Kind of assay: Relative potency for human adenosine A1 receptor (Ki value).
The target of assay [15] is T3, Adenosine receptor A3 (Homo sapiens). Briefly: Relative potency for human adenosine A3 receptor (Ki value).
The target of assay [16] is T6, Adenosine receptor A1. Briefly: Inhibition of cAMP formation in CHO cells expressing human adenosine A1 receptor. The assay is classed as cell-based.
The target in assay [17] is Adenosine receptors; A1 & A3 (Homo sapiens) (UniProt P30542+P0DMS8). Kind of assay: Selectivity for adenosine A1 and A3 receptors. The format is protein assay.

T2 sequence (P29274 whole entry): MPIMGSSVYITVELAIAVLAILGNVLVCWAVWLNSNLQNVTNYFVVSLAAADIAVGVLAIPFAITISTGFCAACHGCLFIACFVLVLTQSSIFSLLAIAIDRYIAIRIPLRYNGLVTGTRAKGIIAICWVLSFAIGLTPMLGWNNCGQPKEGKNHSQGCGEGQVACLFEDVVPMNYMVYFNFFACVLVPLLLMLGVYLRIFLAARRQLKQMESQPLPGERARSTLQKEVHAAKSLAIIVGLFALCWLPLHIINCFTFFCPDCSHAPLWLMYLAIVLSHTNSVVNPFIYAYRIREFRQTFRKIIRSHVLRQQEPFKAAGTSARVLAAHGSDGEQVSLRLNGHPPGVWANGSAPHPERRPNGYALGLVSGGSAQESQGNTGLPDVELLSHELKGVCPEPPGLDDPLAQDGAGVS

`Nc1nc(/N=N/NC(=O)Nc2cccc(C(F)(F)F)c2)nc2c1ncn2C1O[C@H](CO)[C@@H](O)[C@H]1O` (some centres undefined): the Other entry (in assay [1]; at Adenosine receptor A2a [2]; in [3]; in assay [4]) was “Insoluble” throughout.

Consider `Nc1nc(N=O)nc2c1ncn2[C@@H]1O[C@H](CO)[C@@H](O)[C@H]1O`, for which the Displacement amounted to 14% in assay [5] and 40% in assay [6]. Moreover, the Ki at Adenosine receptor A3 [7] was 0.58 µM; at Adenosine receptor A2a [8] it was 0.72 µM.

Molecule `COc1ccccc1NC(=O)/N=N/Nc1nc(N)c2ncn([C@@H]3O[C@H](CO)[C@@H](O)[C@H]3O)c2n1` had a Displacement in [9] of 18%. Besides, the Ki was 0.081 µM at Adenosine receptor A3 [10], 0.125 µM at Adenosine receptor A2a [11] and 0.02 µM on Adenosine receptor A1 [12].

Molecule `COc1ccc(NC(=O)/N=N/Nc2nc(N)c3ncn([C@@H]4O[C@H](CO)[C@@H](O)[C@H]4O)c3n2)cc1` registered a Displacement in assay [9] of 15%. For the same molecule, the Ki on Adenosine receptor A3 [10] turned out to be 0.073 µM; at Adenosine receptor A2a [11] it was 0.025 µM; at Adenosine receptor A1 [12] it was 0.02 µM.

For the molecule `NC(=O)/N=N/Nc1nc(Nc2ccccc2)c2ncn([C@@H]3O[C@H](CO)[C@@H](O)[C@H]3O)c2n1`, the Displacement in assay [9] is 10%; at Adenosine receptor A2a [13], 17.7%. Moreover, the Ki was 0.175 µM at Adenosine receptor A3 [10] and 0.204 µM on Adenosine receptor A1 [12].

On to `Nc1nc(/N=N/NC(=O)NCc2ccccc2)nc2c1ncn2[C@@H]1O[C@H](CO)[C@@H](O)[C@H]1O`, for which the Displacement in assay [9] came to 9%. In addition, the values for the Ki at Adenosine receptor A3 [10], on Adenosine receptor A2a [11] and at Adenosine receptor A1 [12] were 0.147 µM, 0.025 µM and 0.042 µM, respectively.

As to `Nc1nc(/N=N/c2ccccc2)nc2c1ncn2[C@@H]1O[C@H](CO)[C@@H](O)[C@H]1O`, the Displacement in assay [5] amounted to 11%. Also, the Ki at Adenosine receptor A3 [7] came to 0.11 µM; at Adenosine receptor A2a [8], 0.18 µM.

Regarding `Nc1nc(/N=N/NC(=O)Nc2ccccc2)nc2c1ncn2[C@@H]1O[C@H](CO)[C@@H](O)[C@H]1O`, the Displacement in assay [9] amounted to 54%. Further, the Ki on Adenosine receptor A3 [7] turned out to be 0.11 µM; at Adenosine receptor A2a [8], 0.025 µM; on Adenosine receptor A1 [12], 0.0061 µM.

For `OC[C@H]1O[C@@H](n2cnc3c(NC4CCCC4)nc(Cl)nc32)[C@H](O)[C@@H]1O`, the Ki at Adenosine receptor A2a [11] came to 0.639 µM.

For the molecule `O=C(N/N=N/c1nc(NC2CCCC2)c2ncn([C@@H]3O[C@H](CO)[C@@H](O)[C@H]3O)c2n1)Nc1ccccc1`, the Relative potency in assay [14] and in assay [15] was 1 each time. In assay [9], this molecule gave a Displacement of 10%. Also, the Ki on Adenosine receptor A3 [10] was 0.6 µM; on Adenosine receptor A2a [11], 0.21 µM; at Adenosine receptor A1 [12], 0.0028 µM. This molecule also showed an IC50 against Adenosine receptor A1 [16] of 0.0015 µM. In [17], the Selectivity worked out at 214.

With `Nc1nc(/N=N/NC(=O)Nc2cccc(Cl)c2)nc2c1ncn2C1O[C@H](CO)[C@@H](O)[C@H]1O` (some centres undefined), the values for the Displacement (in [9]; on Adenosine receptor A2a [13]) were 64% and 29.9%, respectively.

In [5], `Nc1nc(/N=N/NC(=O)c2ccccc2)nc2c1ncn2[C@@H]1O[C@H](CO)[C@@H](O)[C@H]1O` gave a Displacement of 8%. Moreover, the figures for the Ki on Adenosine receptor A3 [7], on Adenosine receptor A2a [8] and at Adenosine receptor A1 [12] were 0.19 µM, 1 µM and 1.9 µM, respectively.

As for `Nc1nc(N=NNC(=O)Nc2cccc(Cl)c2)nc2c1ncn2C1O[C@H](CO)[C@@H](O)[C@H]1O` (some centres undefined), the Ki was determined as 0.059 µM at Adenosine receptor A3 [7] and 0.015 µM on Adenosine receptor A1 [12].

For the molecule `CCNC(=O)/N=N/Nc1nc(N)c2ncn([C@@H]3O[C@H](CO)[C@@H](O)[C@H]3O)c2n1`, the Displacement in [9] stood at 15%. For the same molecule, the Ki at Adenosine receptor A3 [7] was 0.113 µM; on Adenosine receptor A2a [8], 0.019 µM; at Adenosine receptor A1 [12], 0.045 µM.

As for `O=C(N/N=N/c1nc(Nc2ccccc2)c2ncn([C@@H]3O[C@H](CO)[C@@H](O)[C@H]3O)c2n1)Nc1ccccc1`, the Displacement in assay [9] amounted to 9%. The results for the Ki at Adenosine receptor A3 [10], at Adenosine receptor A2a [11] and on Adenosine receptor A1 [12] were 0.09 µM, 0.0243 µM and 0.43 µM, respectively.

The molecule `Nc1nc(NN=NC(=O)Oc2ccccc2)nc2c1ncn2C1O[C@H](CO)[C@@H](O)[C@H]1O` (some centres undefined) yielded a Ki on Adenosine receptor A3 [10] of 0.577 µM.

Turning to `Nc1nc(/N=N/NC(=O)Nc2ccccc2Cl)nc2c1ncn2[C@@H]1O[C@H](CO)[C@@H](O)[C@H]1O`, the Displacement in [9] was determined as 30%. The Ki at Adenosine receptor A3 [10] is 0.179 µM; at Adenosine receptor A2a [11], 0.045 µM; at Adenosine receptor A1 [12], 0.023 µM.

Take `NC(=O)/N=N/Nc1nc(N)c2ncn([C@@H]3O[C@H](CO)[C@@H](O)[C@H]3O)c2n1`: the Displacement in [9] amounted to 9%. The Ki is 0.209 µM at Adenosine receptor A3 [7], 0.088 µM at Adenosine receptor A2a [8] and 0.14 µM on Adenosine receptor A1 [12].

In assay [9], `Nc1nc(/N=N/NC(=O)Nc2nccs2)nc2c1ncn2[C@@H]1O[C@H](CO)[C@@H](O)[C@H]1O` gave a Displacement of 79%. Further, the Ki at Adenosine receptor A3 [10] turned out to be 0.61 µM; at Adenosine receptor A2a [11], 0.025 µM; on Adenosine receptor A1 [12], 0.024 µM.

For the molecule `Nc1nc(/N=N/NC(=O)Nc2ccc(Cl)cc2)nc2c1ncn2[C@@H]1O[C@H](CO)[C@@H](O)[C@H]1O`, the Displacement stood at 21% in assay [9] and 4.4% on Adenosine receptor A2a [13]. Besides, the Ki stood at 0.039 µM at Adenosine receptor A3 [7] and 0.015 µM on Adenosine receptor A1 [12].

As to `Nc1nc(/N=N/NC(=O)Oc2ccccc2)nc2c1ncn2C1O[C@H](CO)[C@@H](O)[C@H]1O` (some centres undefined), the Displacement in [9] stood at 6%; on Adenosine receptor A2a [13] it was 38.9%; in assay [6] it was 43%.

`Nc1nc(/N=N/NC(=O)NC2CCCCC2)nc2c1ncn2[C@@H]1O[C@H](CO)[C@@H](O)[C@H]1O`: the Displacement in [9] came to 6%. For the same molecule, the Ki on Adenosine receptor A3 [7] turned out to be 0.063 µM; at Adenosine receptor A2a [8], 0.025 µM; on Adenosine receptor A1 [12], 0.0058 µM.

In [9], `O=C(N/N=N/c1nc(NCC(c2ccccc2)c2ccccc2)c2ncn([C@@H]3O[C@H](CO)[C@@H](O)[C@H]3O)c2n1)Nc1ccccc1` showed a Displacement of 10%. The Ki was 0.14 µM on Adenosine receptor A3 [10], 0.98 µM on Adenosine receptor A2a [11] and 0.0031 µM on Adenosine receptor A1 [12].
